Source: patent publication US4550186A, “Binuclear copper (II) carboxylates formed from amine-carboxyboranes” (Duke University, priority 1983, dated 1985)

How the values were obtained:
[1] = Relative solubilities in solvents; type: physicochemical
Text: Solvents in which ligand exchange reactions or initial formation of the complex may take place depend on the structure of the amine portion of the complex and on the ligand being introduced as is well understood by those skilled in the art. Typical solvents which may be used include water and polar organic solvents, such as methanol and pyridine. Typical of solubilities are the following relative solubilities of {Cu[(Me3 NBH2 COO)2.Me3 NBH2 CO2 H]}2 : […]

[2] = test system: sn-Glycerol 3-phosphate Acyl Transferase; assay: In vivo liver enzyme study: sn-glycerol 3-phosphate acyl transferase; parameters: species or system mouse; conditions: CF1 liver after 16 days i.p.
Method: In vitro enzymatic studies were determined using 10% homogenates of CF1 male mouse liver with 50-200 μM of test drugs. In vivo enzymatic studies were determined using 10% homogenates of liver from CF1 male mice obtained after administering the agents for 16 days at a dose ranging from 2.5-20 mg/kg/day intraperitoneally. The liver homogenates for both in vitro and in vivo studies were prepared in 0.25M sucrose and 0.001M (ethylenedinitrilo)tetraacetic acid. Acetyl coenzyme A synthetase and adenosine triphosphate dependent citrate lyase activities were determined spectrophotometrically at 540 nm as the hydroxylamate of acetyl coenzyme A formed after 30 min at 37° C. Mitochondrial citrate exchange was determined by the procedure of Robinson et al [Eur. J. Biochem., 216, 63 (1970)] using ^14 C-sodium bicarbonate (41 mCi/mmol) incorporated into mitochondrial ^14 C-citrate after isolating rat mitochondria (9000 g×10 min) from the homogenates. The exchanges of the ^14 C-citrate were determined after incubating the mitochondrial fraction which was loaded with labeled citrate and test drugs for 10 min. Then the radioactivity was measured in the mitochondrial and supernantant fractions in scintillation fluid and expressed as a percentage. Cholesterol side chain oxidation was determined by the method of Kritchevsky and Tepper [Artherosclerosis, 18, 93 (1973)] using (26-^14 C) cholesterol (50 mCi/mmol) and mitochondria isolated from rat liver homogenates. […] Fatty acid synthetase activity was determined by the method of Brady et al [J. Biol. Chem., 235, 3093 (1960)] using [2-^14 C] malonyl-coenzyme A (37.5 mCi/mmol) which was incorporated into newly synthesized fatty acids that were extracted with ether and counted. Acyl transferase activity was determined with glycerol-3phosphate [L-2-^3 H(N)] […] HCl and counted. Phosphatidate phosphohydrolase activity was measured as the inorganic phosphate released after 30 min from phosphatidic acid by the method of Mavis et al [J. Lipid Res., 19, 467 (1978)]. […]

Holtzman male rats = assay: Antihyperlipidemic screen in normal rats; type: in vivo, rat
Method: Compounds to be tested were suspended in 1% carboxymethylcellulose-water and administered to CF1 male mice (~25 g) intraperitoneally for 16 days or Holtzman male rats (~350 g) orally by an intubation needle for 16 days. On days 9 or 16, blood was obtained by tail vein bleeding and the serum separated by centrifugation for 3 min. The serum cholesterol levels were determined by a modification of the Liebermann-Burchard reaction as described in Ness et al, Clin. Chim. Acta, 10, 229 (1964). Serum was also collected on day 16 and the triglyceride content was determined by a commercial kit, The Fisher Hycel Triglyceride Test Kit.
Data are expressed in the Table 2-7 as percent of control ± the standard deviation. The probable significant level (P) between each test group and the control group was determined by the Student's "t" test.

[3] = test system: thymidylate monophosphate, diphosphate and triphosphate levels of Ehrlich ascites cells; assay: In vivo thymidine incorporation into nucleotide pools; parameters: species or system mouse
Method: CF1 male mice (~30 g) were implanted with 2×10^6 Ehrlich ascites tumor cells, intraperitoneally on Day 0. Compound I was suspended by homogenation in 0.05% polysorbate.80-water and administered intraperitoneally at 10 and 20 mg/kg for 9 days to determine its effectiveness for inhibition of tumor growth. Mice were sacrificed on Day 10, and the ascites fluid was collected from the peritoneal cavity. The volume and ascrit (packed cell volume) were determined for each animal and the percent inhibition of tumor growth was calculated. For the metabolic studies, mice were treated on Days 8 and 9 with 10 mg/kg of Compound I, intraperitoneally. The animal was sacrificed on Day 10 and the ascites fluid harvested. The in vitro metabolic studies were performed at […] final concentration of Compound I.
Deoxythymidine as well as deoxythymidylate monophosphate and diphosphate kinase activities were measured spectrophotometrically at 340 nm at 30 min using reduced nicotinamide adenine dinucleotide (0.1 μmole). Thymidine incorporation (6-^3 H - 21.5 Ci/mmol) into nucleotides was measured using the medium of Maley and Ochoa [J. Biol. Chem., 223, 1538 (1958)]. The reaction medium was extracted with ether and the aqueous layer plated on PEI cellulose F plates and eluted with 0.5N formic acid: 0.6M LiCl (1:1). Areas which correlated with Rf values of thymidine, thymidylate monophosphate, diphosphate and triphosphate standards were scraped and counted.

[4] = rats orally, 10.0 mg/kg, Day 16
[5] = 10 mg/kg/day I.P. on Days 8 and 9

Substance: {Cu[(CH3)3 N.BH2 CO2 ]2.(CH3)3 N.BH2 COOH} [Compound I]
- Solubility ([1]; 2-Chloro-2-methylpropane): insoluble
- Solubility ([1]; Acetic Acid): moderately soluble
- Solubility ([1]; Acetone): insoluble
- Solubility ([1]; Acetonitrile): moderately soluble
- Solubility ([1]; Benzene): insoluble
- Solubility ([1]; Chloroform): insoluble
- Solubility ([1]; Diethyl ether): insoluble
- Solubility ([1]; Dimethyl sulfoxide): moderately soluble
- Solubility ([1]; Ethanol): very slightly soluble
- Solubility ([1]; Ethyl Acetate): insoluble
- Solubility ([1]; Isopropanol): insoluble
- Solubility ([1]; Isopropyl ether): insoluble
- Solubility ([1]; Methanol): moderately soluble
- Solubility ([1]; Methylene chloride): slightly soluble
- Solubility ([1]; Pentane): insoluble
- Solubility ([1]; Pyridine): moderately soluble
- Solubility ([1]; Tetrahydrofuran): insoluble
- Solubility ([1]; Water): very soluble
- sn-Glycerol 3-phosphate Acyl Transferase ([2]; 2.5 mg/kg): 95 ± 6% of control
- sn-Glycerol 3-phosphate Acyl Transferase ([2]; 5.0 mg/kg): 95 ± 7% of control
- sn-Glycerol 3-phosphate Acyl Transferase ([2]; 10 mg/kg): 119 ± 7% of control
- Serum Cholesterol (Holtzman male rats; rats orally, 10.0 mg/kg, Day 9): 63 ± 5 % Control
- Serum Cholesterol (Holtzman male rats; [4]): 65 ± 5 % Control
- Serum Triglyceride (Holtzman male rats; [4]): 36 ± 4 % Control
- Serum triglyceride levels reduced (Holtzman male rats; rats, 10 mg/kg/day): 64%
- reduction in serum cholesterol levels (Holtzman male rats; rats, 10 mg/kg/day): 37%
- 3H-Thymidine incorporation into thymidylate monophosphate pool reduced [3]: 57%
- TDP pool reduced [3]: 19%
- TTP pool reduced [3]: 10%
- Thymidylate diphosphate levels [3, 5]: 89 ± 11 % Control
- Thymidylate monophosphate levels [3, 5]: 43 ± 6 % Control
- Thymidylate triphosphate levels [3, 5]: 90 ± 10 % Control
